Test results: ChEMBL document CHEMBL5375941, “Combating breast cancer with non-steroidal aromatase inhibitors (NSAIs): Understanding the chemico-biological interactions through comparative SAR/QSAR study” (Eur J Med Chem, 2017)
Values belong to the compound of their own block, whether it stands above or below them.

Key:
[1] = target: CYP450 (isoform not stated) (Homo sapiens, UniProt P04798+P05177+P05181+P08684+P10632+P10635+P11509+P11712+P13584+P20813+P20815+P20853+P24462+P24903+P33260+P33261+P51589+P78329+P98187+Q02928+Q08477+Q16678+Q16696+Q5TCH4+Q6VVX0+Q7Z449+Q8TAV3+Q96SQ9+Q9HB55); assay: in vitro; conditions: Liver
[2] = target: T1, Aromatase (Homo sapiens, UniProt P11511); type: cell-based, JEG-3
T1 sequence (P11511 whole entry): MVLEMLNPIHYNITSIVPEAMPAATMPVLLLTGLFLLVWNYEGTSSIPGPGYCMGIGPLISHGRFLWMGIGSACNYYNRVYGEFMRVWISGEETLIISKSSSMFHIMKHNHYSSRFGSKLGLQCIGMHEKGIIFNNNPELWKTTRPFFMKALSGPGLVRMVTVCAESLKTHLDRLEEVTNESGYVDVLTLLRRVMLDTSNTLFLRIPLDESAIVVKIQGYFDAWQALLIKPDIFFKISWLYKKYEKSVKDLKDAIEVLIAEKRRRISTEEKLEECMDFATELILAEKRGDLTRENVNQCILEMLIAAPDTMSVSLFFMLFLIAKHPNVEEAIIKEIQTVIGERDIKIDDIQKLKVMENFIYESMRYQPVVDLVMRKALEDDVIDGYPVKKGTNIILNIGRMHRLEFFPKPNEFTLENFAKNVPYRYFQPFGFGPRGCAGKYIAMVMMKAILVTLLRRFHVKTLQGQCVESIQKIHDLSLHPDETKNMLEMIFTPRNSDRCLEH

[3] = target: T2, Cytochrome P450 1B1 (Homo sapiens, UniProt Q16678)
T2 sequence (Q16678 whole entry): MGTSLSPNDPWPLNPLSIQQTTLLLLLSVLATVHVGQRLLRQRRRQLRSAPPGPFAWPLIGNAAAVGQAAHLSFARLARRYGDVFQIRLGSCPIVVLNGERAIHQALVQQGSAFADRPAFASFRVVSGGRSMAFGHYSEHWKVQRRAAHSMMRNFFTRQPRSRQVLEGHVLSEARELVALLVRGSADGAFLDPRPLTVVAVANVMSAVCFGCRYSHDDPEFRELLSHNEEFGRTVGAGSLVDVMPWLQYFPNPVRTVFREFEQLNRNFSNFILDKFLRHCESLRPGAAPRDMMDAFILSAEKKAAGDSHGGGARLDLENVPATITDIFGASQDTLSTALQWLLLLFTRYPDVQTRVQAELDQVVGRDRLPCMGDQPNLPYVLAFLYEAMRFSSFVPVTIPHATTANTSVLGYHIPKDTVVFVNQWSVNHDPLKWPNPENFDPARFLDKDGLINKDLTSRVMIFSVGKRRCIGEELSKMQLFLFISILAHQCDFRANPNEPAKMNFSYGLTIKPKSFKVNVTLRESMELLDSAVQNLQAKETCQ
Description: Inhibition of recombinant human CYP1B1 using 7-ethyl-0-resorufin as substrate incubated for 30 mins in presence of NADPH

[4] = target: T3, Steroid 17-alpha-hydroxylase/17,20 lyase (Homo sapiens, UniProt P05093); type: ADME
T3 sequence (P05093 whole entry): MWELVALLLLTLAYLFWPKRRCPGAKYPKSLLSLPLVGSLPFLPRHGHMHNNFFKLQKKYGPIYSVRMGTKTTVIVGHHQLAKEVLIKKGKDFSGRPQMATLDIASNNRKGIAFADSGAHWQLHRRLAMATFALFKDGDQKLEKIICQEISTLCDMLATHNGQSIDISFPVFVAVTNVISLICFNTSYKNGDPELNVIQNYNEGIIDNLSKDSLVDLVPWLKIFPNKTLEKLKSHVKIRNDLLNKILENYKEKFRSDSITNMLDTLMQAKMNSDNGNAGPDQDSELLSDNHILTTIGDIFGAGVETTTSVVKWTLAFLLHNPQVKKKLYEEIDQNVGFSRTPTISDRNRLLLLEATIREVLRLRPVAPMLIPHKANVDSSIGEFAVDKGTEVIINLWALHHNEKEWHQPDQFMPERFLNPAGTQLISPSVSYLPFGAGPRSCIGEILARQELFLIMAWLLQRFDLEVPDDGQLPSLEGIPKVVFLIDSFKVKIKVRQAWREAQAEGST
Description: Inhibition of human testicular CYP17

[5] = target: Cytochrome P450 2C19 (Homo sapiens, UniProt P33261)
Cytochrome P450 2C19, sequence (P33261 whole entry): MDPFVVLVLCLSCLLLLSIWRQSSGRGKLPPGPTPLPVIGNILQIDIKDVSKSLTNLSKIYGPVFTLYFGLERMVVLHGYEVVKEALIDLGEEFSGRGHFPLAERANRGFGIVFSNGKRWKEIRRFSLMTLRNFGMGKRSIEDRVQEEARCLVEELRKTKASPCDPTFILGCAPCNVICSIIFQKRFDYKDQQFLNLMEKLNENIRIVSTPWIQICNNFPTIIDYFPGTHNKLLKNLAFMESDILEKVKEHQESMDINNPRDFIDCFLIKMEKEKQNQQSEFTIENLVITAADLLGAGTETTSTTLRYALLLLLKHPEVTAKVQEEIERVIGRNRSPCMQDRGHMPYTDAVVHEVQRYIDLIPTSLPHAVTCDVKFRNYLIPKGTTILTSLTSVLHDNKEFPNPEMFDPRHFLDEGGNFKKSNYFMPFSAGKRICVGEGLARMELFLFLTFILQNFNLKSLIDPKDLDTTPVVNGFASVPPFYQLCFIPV
Description: Inhibition of CYP2C19 in human liver microsomes incubated in presence NADPH

- IC50 [1]: 2810 µM
Structure (SMILES): Oc1ccc2c(c1)CCC1C(c3ccncc3)C21 (stereo unspecified)

- IC50 [1]: 6.05 µM
Structure (SMILES): Oc1cccc2c1CCC1C(c3ccncc3)C21 (stereo unspecified)

- IC50 [2]: 0.00701 µM
Structure (SMILES): N#Cc1ccccc1-c1cccc(Cn2cncn2)c1

- pIC50 [3]: 13.573
Structure (SMILES): COc1ccc(/C=C/c2c(CC=C(C)C)c(O)cc(O)c2CC=C(C)C)cc1

- IC50 [4]: 39.5 µM
Structure (SMILES): c1ccc2c(c1)CCC1C(c3ccncc3)C21 (stereo unspecified)

- IC50 [5]: 10 µM
Structure (SMILES): CCn1cc(C(c2ccc(Cl)cc2)n2ccnn2)c2cc(Br)ccc21 (stereo unspecified)
